11 compounds from ChEMBL document CHEMBL5131375, “Recent Developments in the Use of Kinase Inhibitors for Management of Viral Infections” (J Med Chem, 2022) can be followed below.

Series [1] in a line: Cytotoxicity against human NCI-H1666 cells. The series is classed as toxicity, cell-based.
Series [2] concerns Influenza A virus. In words: Antiviral activity against influenza pH1N1 virus. The class given is functional, organism-based.
Series [3] deals with Influenza A virus. In words: microbe, parasite or virus in culture. The class given is functional, organism-based. Conditions: H1N1.
In series [4] the test system is Human immunodeficiency virus 1. Nature of the series: microbe, parasite or virus in culture. The class given is functional, organism-based.
The nature of series [5]: in vitro. Conditions: human, MDM cells.
Series [6] has as its system Human alphaherpesvirus 3. Nature of the series: microbe, parasite or virus in culture. The series is classed as functional, organism-based.
Series [7] has as its target Cyclin-dependent kinase 4 (Homo sapiens, UniProt P11802).
Series [8] deals with Human alphaherpesvirus 1. In words: Antiviral activity against HSV-1 KOS strain infected in 1 hr pretreated mouse L929 cells assessed as cell viability by cell titre-glo luminescent kit method. The class given is functional, organism-based. Conditions: Human alphaherpesvirus 1, KOS.
Series [9] deals with Human alphaherpesvirus 1. Nature of the series: Antiviral activity against HSV-1-induced necrosis. The class given is functional, organism-based.
A short description of series [10]: Cytotoxicity against 24ST1NLESG cells (unknown origin). The series is classed as toxicity, cell-based.
Series [11] can be described thus: Cytotoxicity against human MCL cells. The series is classed as toxicity, cell-based.
Series [12] can be described thus: Cytotoxicity against human HepG2 cells. The series is classed as toxicity, cell-based.
Series [13] has as its system Human alphaherpesvirus 1. Nature of the series: In vivo antiviral activity against HSV-1 infected in organism (unknown origin) assessed as suppression of skin lesions at 10% ointment treatment. The series is classed as functional.
Series [14] concerns Human alphaherpesvirus 1. Nature of the series: microbe, parasite or virus in culture. The class given is functional, organism-based.
Series [15] deals with Cyclin-dependent kinase 9 (Homo sapiens, UniProt P50750). Nature of the series: Inhibition of CDK9 (unknown origin) incubated for 2 hrs by measuring remaining ATP.
Cyclin-dependent kinase 9, sequence (P50750 whole entry): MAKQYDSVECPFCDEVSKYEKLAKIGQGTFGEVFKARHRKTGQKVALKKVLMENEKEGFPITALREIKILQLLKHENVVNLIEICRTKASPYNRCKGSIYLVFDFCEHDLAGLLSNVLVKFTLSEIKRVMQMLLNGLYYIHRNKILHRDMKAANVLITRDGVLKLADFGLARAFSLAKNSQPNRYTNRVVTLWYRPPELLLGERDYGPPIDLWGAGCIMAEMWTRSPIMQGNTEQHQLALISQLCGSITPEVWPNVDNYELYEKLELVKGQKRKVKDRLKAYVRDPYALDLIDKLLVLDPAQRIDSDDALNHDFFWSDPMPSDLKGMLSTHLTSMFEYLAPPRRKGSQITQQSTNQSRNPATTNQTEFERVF
For series [16], the system named is Hepatitis B virus. Nature of the series: microbe, parasite or virus in culture. The series is classed as functional, organism-based. The note with it: Hepatitis B virus.
In series [17] the test system is Hepatitis B virus. Nature of the series: Antiviral activity against HBV infected in human HepG2-hNTCP cells. The series is classed as functional, organism-based.
The nature of series [18]: in vitro. Conditions: human, HeLa cells.
In series [19] the test system is Human alphaherpesvirus 1. Nature of the series: Antiviral activity against ACV-resistant HSV-1 in African green monkey Vero cells measured after 2 days. The class given is functional, organism-based. Conditions: Human alphaherpesvirus 1, Vero, 48 h.
Series [20] can be described thus: in vitro. Conditions: human, Huh-7.5.1 cells.
Series [21] has as its system dengue virus type 1. Nature of the series: microbe, parasite or virus in culture. The series is classed as functional, organism-based.
For series [22], the system named is dengue virus type 2. Nature of the series: microbe, parasite or virus in culture. The series is classed as functional, organism-based.
Series [23] relates to dengue virus type 4. In words: microbe, parasite or virus in culture. The class given is functional, organism-based.
Series [24] relates to dengue virus type 3. Nature of the series: microbe, parasite or virus in culture. The class given is functional, organism-based.
Series [25] concerns Human immunodeficiency virus. Nature of the series: microbe, parasite or virus in culture. The series is classed as functional, organism-based. Conditions: Human immunodeficiency virus 1.
Series [26] can be described thus: in vitro. The note with it: human, jurkat 6c6-du cell.
A short description of series [27]: in vitro. Conditions: human, Huh-7 cells.
Series [28] deals with Chikungunya virus. Nature of the series: microbe, parasite or virus in culture. The series is classed as functional, organism-based.
Series [29] relates to Human immunodeficiency virus 2. In words: microbe, parasite or virus in culture. The series is classed as functional, organism-based.
Series [30] can be described thus: in vitro. The note with it: human, PBMC.
Series [31] can be described thus: Toxicity in mouse infected with Influenza A virus assessed as lethality at 75 mg/kg, po. Conditions: in vivo. The class given is organism-based.
Series [32] concerns Influenza A virus. In words: microbe, parasite or virus in culture. The series is classed as functional, organism-based.
A short description of series [33]: in vitro. Conditions: human, bxpc-3.
The subject of series [34] is Influenza A virus. In words: microbe, parasite or virus in culture. The class given is functional, organism-based. This is another data set of the same source.
Series [35] in a line: Cytotoxicity against HSG cells. The series is classed as toxicity, cell-based. Conditions: human.
Series [36] relates to Cytomegalovirus. Nature of the series: Antiviral activity against CMV. The class given is functional, organism-based. The note with it: Human betaherpesvirus 5.

Cyclin-dependent kinase 4, sequence (P11802 whole entry): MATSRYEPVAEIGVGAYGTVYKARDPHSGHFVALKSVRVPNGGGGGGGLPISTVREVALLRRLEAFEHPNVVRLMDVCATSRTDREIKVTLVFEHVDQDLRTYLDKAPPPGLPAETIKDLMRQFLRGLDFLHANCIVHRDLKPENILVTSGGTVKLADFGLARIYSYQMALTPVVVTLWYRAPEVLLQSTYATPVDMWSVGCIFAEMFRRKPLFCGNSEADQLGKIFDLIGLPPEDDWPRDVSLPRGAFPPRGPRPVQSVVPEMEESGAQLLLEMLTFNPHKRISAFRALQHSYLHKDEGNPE

A word on the EC50: it is the concentration needed to bring the measured effect to its halfway point. Broadly, the IC50 is the midpoint of a concentration-inhibition curve. For the compound `NC1(c2ccc(-c3nc4ccn5c(=O)[nH]nc5c4cc3-c3ccccc3)cc2)CCC1` [MK-2206], the CC50 in series [1] turned out to be 58500 nM. In series [2], this compound gave an EC50 of 790 nM. In addition, in series [3], half-maximal inhibition (IC50) required 790 nM.

Consider `CC(C)[C@H](CO)Nc1nc(Nc2cccc(Cl)c2)c2ncn(C(C)C)c2n1` [PURVALANOLA], for which the EC50 in series [4] was determined as 2210 nM; in [6], 1000 nM. The compound further yielded a CC50 in series [5] of 18700 nM. Besides, the 50% inhibitory concentration (IC50) in [7] was 4 nM.

Take `O=C1NCCc2[nH]c(-c3ccncc3)cc21`: the IC50 in [8] and in series [9] was 1860 nM throughout. In series [10], this compound had a CC50 of 1000 nM.

Turning to `C=CC(=O)N1CCC([C@@H]2CCNc3c(C(N)=O)c(-c4ccc(Oc5ccccc5)cc4)nn32)CC1` [ZANUBRUTINIB], the CC50 in [11] is over 1400 nM.

In the case of `Fc1ccc(N2CCCCC2)c(NC(=S)c2ccncc2)c1`, the CC50 in series [12] was over 50000 nM; in series [18], over 10000 nM. The Activity in series [13] is reported as 100%. For the same compound, the EC50 in series [14] stood at 690 nM; in series [16], 330 nM. The half-inhibitory concentration (IC50) in series [15] came to 5800 nM; in series [17], 330 nM; in [19], 690 nM.

As for `COc1ccc(CC(N)c2csc(Nc3ncccn3)n2)cc1` (configuration not stated), the CC50 in series [20] was over 100000 nM. Besides, the EC50 was determined as 900 nM in series [21], 7600 nM in [22], 5000 nM in series [23] and 2600 nM in series [24].

As for `O=C(Nc1nc2cccc(-c3ccc(CN4CCS(=O)(=O)CC4)cc3)n2n1)C1CC1` [FILGOTINIB], the EC50 in [25] amounted to 3100 nM. In series [26], the CC50 was over 10000 nM.

In turn, `CC(C)c1ccc(NC(=O)c2csc(C(O)C(C)C)n2)cc1` (configuration not stated) yielded a CC50 in [27] of over 50000 nM. A half-maximal response in [28] (EC50) required 2200 nM.

Turning to `N#CC[C@H](C1CCCC1)n1cc(-c2ncnc3[nH]ccc23)cn1` [RUXOLITINIB], the 50% effective concentration (EC50) in series [4] stood at 300 nM; in [29], 200 nM. The compound further came in with a CC50 in [30] of over 100000 nM.

`O=C(NCc1ccncc1)C12CC3CC(C1)CC(c1ccc(Cl)cc1)(C3)C2` [ABC-294640]: the Activity entry in series [31] is “Non-Toxic”. In addition, the EC50 in [32] and in series [34] was 1780 nM each time. For the same compound, in [33], the CC50 came out at 28500 nM.

With `Cc1oncc1C(=O)Nc1ccc(C(F)(F)F)cc1` [LEFLUNOMIDE], the CC50 in [35] is 20800 nM. A half-maximal response in series [36] (EC50) required 40000 nM.
